Several values for one entry are separate records, joined by “and”; a condition that tells them apart may be missing. Identical values can stand only once.
Legend:
Assay in all cases: Cell assay (liposome/EV binding, flow cytometry)
Assay type in all cases: cell-based
Siglec-8 WT CHO cells = biological target: T1, Siglec-8 WT CHO cells (Homo sapiens, UniProt Q9NYZ4); details: Sig-8 WT; 3 mol% ganglioside liposomes; replicates
T1 construct: expressed in transfected cells
Experimental: (§1) Stock lipids (DSPC, Cholesterol, PEG45–DSPE) solutions were prepared by solvating the lipids in chloroform. An appropriate volume of each lipid solution was transferred to a glass test tube to reach the desired mol% of the component. The chloroform was then removed under N2 gas to yield a lipid thin film. Once dry, 100 µL of DMSO was added to the lipid-containing test tube and then the functional lipids (ganglioside, AF647–PEG45–DSPE, Siglec ligand–PEG45–DSPE, pHrodo–PEG45–DSPE, NGL) was added from their respect DMSO stock solution. The lipid mixture was then stored at −80 °C until completely frozen at which point excess DMSO was removed via lyophilization. Dry lipids were then stored at −80 °C until they were extruded. Lipid suppliers can be found in Supplementary Table 4.
(§2) Dry lipids were then hydrated in 1 mL of PBS. The lipids were then sonicated in a bath sonicator in a cycle of 1 min on, 5 min off for a total of five cycles. Liposomes were then extruded using an Avanti mini extruder first using an 800 nm filter and then a 100 nm filter yielding liposomes that were 130 ± 35 nm (Supplementary Table 5) measured using a Malvern Panalytical Zetasizer Nano S. Liposomes were stored at 4 °C.
(§3) 200,000 cells/well were plated into a 96-well U-bottom microplate and centrifuged at 300 × g for 5 min. The cells were then resuspended in 50 µL of 50 µM liposome/50 µg/mL (protein concentration) of EV solution in DMEM F12 5% FBS and incubated at 37 °C for 30 min. Excess liposomes were then removed via centrifuged at 300 × g for 5 min followed by washing the cells with FACS solution. The cells were then resuspended in (1:250 V/V) anti-Siglec-flow buffer (1% V/V FBS, 500 µM, EDTA Hank’s Balanced Salt Solution pH 7.4), solution and left to rest on ice for 30 min. The cells were then centrifuged again at 300 × g for 5 min and the cells were resuspended in FACS buffer solution and were then ready for analysis by flow cytometry. Information regarding antibody clone, catalog number supplier, label isotype, and dilution can be found in Supplementary Table 6. The Siglec-positive cells were gated on for liposome-binding analysis (Supplementary Fig. 1b).
(§4) Flow cytometry measurements were collected on a 5-laser Fortessa X-20 (BD Bioscience). All the resulting data were analyzed using FlowJo (10.5.3) software (BD Biosciences).

WT Siglec-6 CHO cells = biological target: T2, WT Siglec-6 CHO cells (Homo sapiens, UniProt O43699); details: Sig-6 WT; 3 mol% ganglioside liposomes; replicates
T2 construct: expressed in transfected cells
T2 sequence (O43699 27-453): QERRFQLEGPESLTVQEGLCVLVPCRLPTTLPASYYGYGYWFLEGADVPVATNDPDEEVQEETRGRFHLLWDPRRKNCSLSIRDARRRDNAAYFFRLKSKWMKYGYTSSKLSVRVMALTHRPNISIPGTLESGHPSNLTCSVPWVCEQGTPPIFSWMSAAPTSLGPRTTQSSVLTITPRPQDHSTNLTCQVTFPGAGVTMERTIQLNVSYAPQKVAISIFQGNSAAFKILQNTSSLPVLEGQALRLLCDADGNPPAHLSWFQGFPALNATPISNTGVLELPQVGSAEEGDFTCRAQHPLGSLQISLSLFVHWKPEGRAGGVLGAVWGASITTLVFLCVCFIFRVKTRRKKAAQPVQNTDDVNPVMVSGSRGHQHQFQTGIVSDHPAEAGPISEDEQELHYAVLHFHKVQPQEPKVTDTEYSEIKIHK
Experimental: as §1, §2, §3, §4

CD33 WT CHO cells = biological target: T3, CD33 WT CHO cells (Homo sapiens, UniProt P20138); details: 3 mol% ganglioside liposomes, replicates
T3 construct: expressed in transfected cells
T3 sequence (P20138 18-364): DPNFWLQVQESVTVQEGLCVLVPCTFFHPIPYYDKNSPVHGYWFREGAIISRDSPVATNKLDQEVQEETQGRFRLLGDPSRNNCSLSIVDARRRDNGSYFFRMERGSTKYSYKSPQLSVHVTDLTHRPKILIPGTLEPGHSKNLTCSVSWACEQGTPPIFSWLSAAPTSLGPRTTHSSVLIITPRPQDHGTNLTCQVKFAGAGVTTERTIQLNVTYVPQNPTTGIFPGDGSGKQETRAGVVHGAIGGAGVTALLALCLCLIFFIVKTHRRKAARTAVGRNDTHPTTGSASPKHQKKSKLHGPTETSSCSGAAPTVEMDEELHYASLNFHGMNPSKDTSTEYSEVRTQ
Experimental: as §1, §2, §3, §4

[1] = biological target: T4, Siglec-11 R120A CHO cells (Homo sapiens, UniProt Q96RL6, R132A); details: Sig-11 R120A; 3 mol% ganglioside liposomes; replicates
T4 construct: expressed in transfected cells
T4 sequence (Q96RL6 28-698 R132A): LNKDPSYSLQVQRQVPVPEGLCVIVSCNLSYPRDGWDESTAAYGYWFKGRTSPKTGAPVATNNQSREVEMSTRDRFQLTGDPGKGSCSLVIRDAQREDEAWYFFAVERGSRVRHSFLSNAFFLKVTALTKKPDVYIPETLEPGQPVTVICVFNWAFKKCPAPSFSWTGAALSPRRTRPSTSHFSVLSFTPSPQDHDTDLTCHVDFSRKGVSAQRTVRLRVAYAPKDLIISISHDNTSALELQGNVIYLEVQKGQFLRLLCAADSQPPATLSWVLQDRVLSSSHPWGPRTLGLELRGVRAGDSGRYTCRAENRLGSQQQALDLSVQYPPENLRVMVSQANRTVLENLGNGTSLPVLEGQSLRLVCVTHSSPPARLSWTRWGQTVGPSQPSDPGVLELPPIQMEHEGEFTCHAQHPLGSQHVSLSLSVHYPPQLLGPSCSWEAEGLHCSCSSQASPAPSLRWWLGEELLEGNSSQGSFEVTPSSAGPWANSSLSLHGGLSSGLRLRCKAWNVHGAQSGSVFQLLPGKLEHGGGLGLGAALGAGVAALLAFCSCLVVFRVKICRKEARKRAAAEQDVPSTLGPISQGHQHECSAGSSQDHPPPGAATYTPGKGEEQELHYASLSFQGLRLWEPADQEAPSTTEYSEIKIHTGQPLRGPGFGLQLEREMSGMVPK
Experimental: as §1, §2, §3, §4

[2] = biological target: T5, Siglec-15 R143A CHO cells (Homo sapiens, UniProt Q6ZMC9, K274L/R143A); details: Sig-15 R143A; 3 mol% ganglioside liposomes; replicates
T5 construct: expressed in transfected cells
T5 sequence (Q6ZMC9 20-328 R143A/K274L): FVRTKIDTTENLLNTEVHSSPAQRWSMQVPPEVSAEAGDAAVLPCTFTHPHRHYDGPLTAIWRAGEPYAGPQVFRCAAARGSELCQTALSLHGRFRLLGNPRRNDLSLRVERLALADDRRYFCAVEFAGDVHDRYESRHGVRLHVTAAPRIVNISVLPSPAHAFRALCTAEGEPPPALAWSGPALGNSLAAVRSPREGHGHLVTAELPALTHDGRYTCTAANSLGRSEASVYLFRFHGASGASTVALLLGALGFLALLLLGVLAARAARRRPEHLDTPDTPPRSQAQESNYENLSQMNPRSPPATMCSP
Experimental: as §1, §2, §3, §4

CD33 R119A CHO cells = biological target: T6, CD33 R119A CHO cells (Homo sapiens, UniProt P20138, R119A); details: 3 mol% ganglioside liposomes, replicates
T6 construct: expressed in transfected cells
T6 sequence (P20138 18-364 R119A): as the sequence (P20138 18-364) above, with R102A counted along it
Experimental: as §1, §2, §3, §4

T1 sequence (Q9NYZ4 17-499): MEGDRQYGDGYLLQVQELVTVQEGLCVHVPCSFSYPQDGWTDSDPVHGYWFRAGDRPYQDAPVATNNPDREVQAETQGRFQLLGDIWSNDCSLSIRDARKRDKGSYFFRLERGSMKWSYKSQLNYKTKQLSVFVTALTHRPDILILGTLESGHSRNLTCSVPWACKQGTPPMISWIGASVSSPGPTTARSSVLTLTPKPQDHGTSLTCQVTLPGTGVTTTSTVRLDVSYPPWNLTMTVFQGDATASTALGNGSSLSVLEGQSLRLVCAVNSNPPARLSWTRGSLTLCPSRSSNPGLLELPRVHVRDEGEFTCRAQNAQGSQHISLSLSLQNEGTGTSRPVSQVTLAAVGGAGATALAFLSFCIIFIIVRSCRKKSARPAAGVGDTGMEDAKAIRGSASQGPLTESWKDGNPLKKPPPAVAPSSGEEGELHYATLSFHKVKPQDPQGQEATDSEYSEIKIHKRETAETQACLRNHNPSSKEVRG

Substance	log10(MFI AF647) of GLL relative to log10(MFI AF647) of the same GLL against UT CHO cells (Fig. 2a) (Siglec-8 WT CHO cells)	log10(MFI AF647) of GLL relative to log10(MFI AF647) of the same GLL against UT CHO cells (Fig. 2a) (WT Siglec-6 CHO cells)	log10(MFI AF647) of GLL relative to log10(MFI AF647) of the same GLL against UT CHO cells (Fig. 2a) (CD33 WT CHO cells)	log10(MFI AF647) of GLL relative to log10(MFI AF647) of the same GLL against UT CHO cells (Fig. 2a) [1]	log10(MFI AF647) of GLL relative to log10(MFI AF647) of the same GLL against UT CHO cells (Fig. 2a) [2]	log10(MFI AF647) of GLL relative to log10(MFI AF647) of the same GLL against UT CHO cells (Fig. 2a) (CD33 R119A CHO cells)
GD1a	-0.17 and -0.14 and -0.12 and -0.13	0.57 (2×) and 0.56 (2×)	-0.09 and -0.06 and -0.03 and 0.01	-0.11 and -0.13 and -0.12 (2×)	-0.02 and -0.07 and -0.06 and -0.05	0 (2×) and -0.03 and -0.02
GM4	-0.15 (2×) and -0.14 and -0.13	0.02 (2×) and 0.05 and 0.04	-0.13 and -0.11 and -0.09 and -0.02	-0.11 (2×) and -0.1 (2×)	-0.08 and -0.09 and -0.11 and -0.1	-0.05 (2×) and -0.02 (2×)
GM2	-0.18 (2×) and -0.15 and -0.17	0.03 (2×) and 0.04 and 0.06	-0.08 and -0.05 and -0.02 and 0	-0.07 (2×) and -0.06 (2×)	-0.02 (2×) and -0.04 and -0.03	-0.01 and 0 and 0.03 (2×)

From article PMC10122656, “Siglec-6 mediates the uptake of extracellular vesicles through a noncanonical glycolipid binding pocket” (Nature Communications, 2023)
